# Several values for one entry are separate records, joined by “and”; a condition that tells them apart may be missing. Equal values may be shown once.
# Columns and labels:
# [1] = molecular target: T1, GlyT2 protein (Homo sapiens, UniProt Q9Y345); settings: relative to main action on GlyT1; cited from earlier work
# T1 sequence (Q9Y345 1-797): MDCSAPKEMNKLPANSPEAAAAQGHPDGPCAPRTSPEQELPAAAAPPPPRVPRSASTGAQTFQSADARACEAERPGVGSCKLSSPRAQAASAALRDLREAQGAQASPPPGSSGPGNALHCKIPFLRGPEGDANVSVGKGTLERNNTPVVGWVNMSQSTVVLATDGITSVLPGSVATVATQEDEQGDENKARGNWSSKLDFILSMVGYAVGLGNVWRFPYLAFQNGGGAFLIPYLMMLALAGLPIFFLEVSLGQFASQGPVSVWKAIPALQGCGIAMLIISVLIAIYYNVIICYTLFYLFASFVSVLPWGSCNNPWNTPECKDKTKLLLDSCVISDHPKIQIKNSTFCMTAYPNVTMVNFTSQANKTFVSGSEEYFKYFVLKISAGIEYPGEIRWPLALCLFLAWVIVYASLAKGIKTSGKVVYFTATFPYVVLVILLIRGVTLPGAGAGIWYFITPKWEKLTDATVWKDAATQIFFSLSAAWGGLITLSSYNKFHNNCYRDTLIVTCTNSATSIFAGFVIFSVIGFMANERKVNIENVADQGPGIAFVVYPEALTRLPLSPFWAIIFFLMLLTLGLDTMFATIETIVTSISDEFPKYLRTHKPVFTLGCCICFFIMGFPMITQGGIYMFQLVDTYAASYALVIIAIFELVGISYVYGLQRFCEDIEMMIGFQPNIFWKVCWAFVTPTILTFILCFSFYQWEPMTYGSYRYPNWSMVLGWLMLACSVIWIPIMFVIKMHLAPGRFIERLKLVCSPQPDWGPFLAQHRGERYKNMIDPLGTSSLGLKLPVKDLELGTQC
# [2] = system: ethanol high preferring male Wistar rats; experiment: Limited access free choice ethanol (6% v/v) / water drinking in ethanol high preferring rats
# Protocol: Male adult Wistar rats weighing 250-300 g (approx. 50 days old) were supplied by Beekay (Stockholm, Sweden). The animals were housed in groups of four at a constant cage temperature (25° C.) and humidity (65° C.). The animals were allowed to adapt for one week to the novel environment before any experiment (Screening for ethanol preference) was performed. They were kept under regular light-dark conditions (light on at 07:00 a.m. and off at 19:00 p.m.) with free access to standard rat feed (Beekay feed) and tap water.
# Rats had continuous access to a bottle of ethanol solution in addition to the water bottle. […] The animals were subsequently housed individually in plastic cages. They had continuous access to two bottles containing either tap water or 6% ethanol solution. […] Water and ethanol intake were measured over a 6-7-week period. The amount (g) of ethanol solution consumed, in percent of total fluid intake (g), was used as an index of ethanol preference. Rats were classified as low-(<20% ethanol), medium (20%-60% ethanol), or high-(>60% ethanol) preferring based on their ethanol preference.
# Ethanol (AB Svensk sprit) was dissolved (2-4-6% v/v) with regular tap water and presented in regular plastic 300 ml bottles. […] NaCl (0.9%) was used as vehicle.
# To adapt to the experimental procedure, approx. 80 days old ethanol high preferring male Wistar rats were limited to drink both ethanol (6% v/v) and water for only three hours/day during one week, so called limited access (limited access) drinking. Thereafter, daily MTHMPNMglycine or vehicle administration started. MTHMPNMglycine or vehicle was injected i.p. and the rats were allowed to rest for approx. 40 min after which they were presented a choice between ethanol and water and allowed to drink for 3 hours. In the first experiment rats were challenged with MTHMPNMglycine (6 mg/kg) or vehicle for two weeks and alcohol and water intake were monitored. The experiment was preceded and ended by a limited access period.
# Again the rats were treated with MTHMPNMglycine (6 mg/kg) or vehicle for 13 days. In addition, the rats were thereafter exposed to a two-week period of alcohol deprivation (limited access), during which they were allowed to drink only water 3 hours per day. After the limited access period the rats were again challenged with MTHMPNMglycine or vehicle and re-exposed to ethanol for an additional time-period of 13 days. […] The rats were presented to the water and ethanol (6% v/v) bottles approx. 40 minutes after drug administration.
# The ethanol and water consumption data were statistically analysed using Analysis of variance (ANOVA) for repeated measures followed by post hoc analysis by means of Fisher's Protected Least Significant Difference (PLSD) test. Paired t-test was used for dependent comparisons between values obtained at different time-points. All values are expressed as means ±SEM. A probability value (P) less than 0.05 was considered statistically significant.
# A new set of male ethanol high-preferring Wistar rats were injected i.p. with either MTHMPNMglycine or vehicle. Approx. 40 minutes after injection all rats were exposed to a free choice between ethanol (6% v/v) and water for 3 hours. First all rats received MTHMPNMglycine (6 mg/kg) or vehicle daily during 13 days.
# [3] = oral administration
# [4] = system: striatal extracellular glycine levels; settings: 6 mg/kg i.p., rat approx. 500 g; stated as expected; cited from earlier work
# [5] = 10 mg/kg, dose-finding pilot experiments
compound,measurement,setting,value
"CCCOc1ccc(C2=CC3(CCN(CC(=O)O)CC3)Oc3ccccc32)cc1F [FPPSBPAA, 4-[3-fluoro-4-propoxyphenyl]-spiro[2H-1-benzopyran-2,4′-piperidine]-1′-acetic acid]",action on the GlyT2 protein,[1],negligible action
COc1ccc2c(c1)CC[C@H](CN(C)CC(=O)O)[C@@H]2c1ccccc1 [MTHMPNMglycine],total fluid intake vs vehicle,"[2]; Experiment 1, 6 mg/kg i.p. daily, day 4-14, group effect p=0.0004, groups also differed on day 1-3",significantly reduced
same,ethanol intake vs vehicle,"[2]; Experiment 1, 6 mg/kg i.p. daily, day 4-14, group effect p=0.0125",significantly reduced
same,ethanol preference vs vehicle,"[2]; Experiment 1, 6 mg/kg i.p. daily, day 4-14, group effect p=0.1899",no group effect
same,water intake vs vehicle,"[2]; Experiment 1, 6 mg/kg i.p. daily, day 4-14, group effect p=0.8713",no difference
same,"ethanol preference, difference vs vehicle","[2]; Experiment 2, 1.5 mg/kg i.p., day 28-29, group effect p=0.2117",totally abolished
same,"ethanol intake, difference vs vehicle","[2]; Experiment 2, 1.5 mg/kg i.p., day 28-29, group effect p=0.8614",totally abolished
same,ethanol preference vs vehicle,"[2]; Experiment 2, 3 mg/kg i.p., day 24-27, group effect p=0.1555",appeared to decrease the difference between the groups
same,ethanol intake vs vehicle,"[2]; Experiment 2, 3 mg/kg i.p., day 24-27, group effect p=0.2973",difference between the groups was reduced
same,treatment time after which the ethanol intake reducing effect was most pronounced,"[2]; Experiment 2, 6 mg/kg i.p.",4 to 6 days
same,water intake vs vehicle,"[2]; Experiment 2, 6 mg/kg i.p., after alcohol deprivation, day 17-23, group effect p=0.0659",tendency to increase their water intake
same,ethanol preference vs vehicle,"[2]; Experiment 2, 6 mg/kg i.p., after approx. one week, day 11-16, group effect p<0.0001",significant decrease
same,total fluid intake vs vehicle,"[2]; Experiment 2, 6 mg/kg i.p., after four days of treatment, day 8-16, group effect p<0.0001",significantly lowered
same,ethanol intake vs vehicle,"[2]; Experiment 2, 6 mg/kg i.p., after one week of treatment, day 11-17, group effect p=0.0001",even more pronounced
same,ethanol intake vs vehicle,"[2]; Experiment 2, 6 mg/kg i.p., after two weeks of alcohol deprivation, day 17-23, group effect p=0.0348",remained significantly reduced
same,ethanol preference vs vehicle,"[2]; Experiment 2, 6 mg/kg i.p., after two weeks of alcohol deprivation, day 17-23, group effect p=0.0572","remained reduced, although not significantly"
same,total fluid intake after vs before reintroducing ethanol choice (within group),"[2]; Experiment 2, 6 mg/kg i.p., day 14 vs. day 19, paired t-test p<0.0001",significantly increased
same,ethanol intake after vs before alcohol deprivation period (within group),"[2]; Experiment 2, 6 mg/kg i.p., day 14 vs. day 19, paired t-test p=0.0135",significantly increased
same,water intake after vs before alcohol deprivation period (within group),"[2]; Experiment 2, 6 mg/kg i.p., day 14 vs. day 19, paired t-test p=0.0188",significantly increased their water intake
same,ethanol intake vs vehicle,"[2]; Experiment 2, 6 mg/kg i.p., first 6 days of treatment, day 4-10, group effect p=0.0008",significantly reduced
same,ethanol preference vs vehicle,"[2]; Experiment 2, 6 mg/kg i.p., first 6 days, day 4-10, group effect p=0.1300",no significant difference
same,water intake vs vehicle,"[2]; Experiment 2, 6 mg/kg i.p., first part of the experiment (before alcohol deprivation)",not significantly different
same,total fluid intake vs vehicle,"[2]; Experiment 2, after the alcohol deprivation (limited access) period",no difference
same,oral dose that induced visible behavioral changes,[3],≥ 13.5 mg/kg
same,duration of behavioral changes,[5],10 to 15 min
same,incidence of behavioral changes,[5],one out of ten
same,gross behavior at the doses used in the study,"1.5-6 mg/kg i.p., rats",behaviorally unaffected
same,mean body weight vs vehicle,during the limited access/experimental time,significant lowered
same,action on the GlyT2 protein,[1],negligible action
same,increase of striatal extracellular glycine levels,[4],50-80% and 50-70%
